Experimental data as given in patent US20240018470A1, “METHOD OF MANIPULATING PLURIPOTENCY IN CELLS” (YALE UNIVERSITY, priority 2022, published 2024).
No end group written: not given here.

Columns and labels:
hESCs [1] = test: hESC pluripotency marker qPCR; format: cell-based, human; settings: 25 nM; OCT4 and SOX2 by day 2, all three genes on day 5
Protocol: hESCs were grown in mTeSR1 (STEMCELL Technologies) in tissue culture dishes coated with Matrigel (Corning; 1:200 in DMEM/F12) and kept at 37° C., 5% CO2. The cell lines used were ESI017 (ESIBIO) and H9. Cells were routinely passaged using dispase (STEMCELL Technologies) and tested for mycoplasma contamination and found negative. For rapamycin experiments, cells were grown in MEF-conditioned HUESM media supplemented with 20 ng/ml bFGF with or without 100 nM rapamycin, which the present study found to increase the survival of rapamycin treated cells compared to cells grown in mTeSR1.
For qPCR, hESCs were grown with or without ErgToxin (25 nM) for the indicated times. RNA collection and DNase treatment were performed using the RNAqueous®-Micro Total RNA Isolation Kit (AM1931) and cDNA was synthesized with the SuperScript Vilo cDNA Synthesis Kit (Fisher Scientific 11754-050). qPCR measurements were collected using SYBR Green reagent (LifeTech-4367659) on a Step OnePlus instrument (Applied Biosciences). Data were normalized using the housekeeping gene GAPDH. Primers for qPCR were: OCT4: 5′-[…]-3′ (SEQ ID NO:12), 5′-[…]-3′ (SEQ ID NO:13), SOX2: 5′-[…]-3′ (SEQ ID NO:14), 5′-[…]-3′ (SEQ ID NO:15), NANOG: 5′-[…]-3′ (SEQ ID NO:16), 5′-[…]-3′ (SEQ ID NO:17), GAPDH: 5′-[…]-3′ (SEQ ID NO:18), 5′-[…]-3′ (SEQ ID NO:19).

hESCs [2] = test: hESC pluripotency marker immunofluorescence; format: cell-based, human
Protocol: hESCs were grown in mTeSR1 ([…] Technologies) in tissue culture dishes coated with Matrigel (Corning; 1:200 in DMEM/F12) and kept at 37° C., 5% CO2. The cell lines used were ESI017 (ESIBIO) and H9.
(§1) Cells were dissociated with accutase and seeded onto 8 well imaging slides (ibidi 80826) at a density of 4-6×10^4/cm^2. Cells were seeded and maintained in Rock-inhibitor Y27672 (MCE; 10 μM) to increase survival and the uniformity of response. Treatments with 1 mM BaCl2 or 10 or 25 nM Ergtoxin or 100 nM rapamycin were initiated 4 hours after seeding. Differentiation was initiated 24 hours after seeding where indicated. To initiate differentiation, the media was replenished with/without BaCl2 or Ergtoxin and treated with the indicated growth factors or small molecules. Cells were incubated for the indicated times without media change before fixation.
Cells were fixed for 30 min in 4% paraformaldehyde, rinsed twice with DPBS (without Ca^2+ and Mg^2+, denoted DPBS^−/−), and blocked for 30 min at room temperature. The blocking solution contained 3% donkey serum and 0.1% Triton X-100 in 1×DPBS^−/−. After blocking, the cells were incubated with primary antibodies at room temperature for 2 hours. Antibodies and concentrations are listed below. Cells were washed three times with DPBST (1×DPBS^−/− with Tween 20) and incubated with secondary antibodies (AlexaFluor 488 A21206, AlexaFluor 555 A31570 and A21432, and AlexaFluor 647 A31571, Thermo Fisher; 1:500) and DAPI for 30 min at room temperature. After secondary antibody incubation, samples were washed in DPBST and then DPBS at room temperature.
(§2) Images were acquired using a 20×, NA 0.75 objective on an Olympus IX83 inverted epifluorescence microscope or an Olympus/Andor spinning disk confocal microscope. Cell segmentation was performed using ilastik software. This segmentation was cleaned (to remove debris and to separate merged cells) and mean nuclear protein intensities as well as standard errors were quantified using a custom MATLAB code. Nuclear intensities were normalized by DAPI to correct for intensity variation due to optics. […]

Xenopus embryos [3] = test: Gastrulation scoring (incomplete blastopore closure) in treated or kcnh6-depleted embryos; format: in vivo, Xenopus tropicalis; settings: blastula/gastrula embryos treated stage 8 to stage 12, 50 nM
Protocol: All injections of Xenopus embryos were performed at the one-cell stage using a fine glass needle and Picospritzer system. A kcnh6 translation blocking (kcnh6 MO, 5′-[…]-3′, SEQ ID NO:1) and a scrambled morpholino oligonucleotide were obtained from Gene Tools LLC and injected at 10 ng to deplete kcnh6 or as a control, respectively. CRISPR sgRNAs for kcnh6 targeted either exon 3 or exon 4 based on the v7.1 gene model of the X. tropicalis genome (CRex3: 5′-[…]-3′, SEQ ID NO:2 and CRex4: 5′-[…]-3′, SEQ ID NO:3). CRISPR sgRNAs for cacna1c (5′-[…]-3′, SEQ ID NO:4) and cacna1g (5′-[…]-3′, SEQ ID NO:5) were designed from the v7.1 model of the Xenopus tropicalis genome. For F0 CRISPR knockdown, embryos were injected with 1.5 ng Cas9 Protein (PNA-Bio) and 400 pg of targeting sgRNA and raised to desired stages. […] Full length human KCNH6 (NM 030779.3; cloned in pCS107), GCaMP6 (subcloned in pCSDest) and mCherry cDNAs (Addgene #34935; in pCS2+), were used to generate capped mRNAs in vitro by first linearizing with appropriate restriction enzymes and then transcribing with the mMessage machine kit (Ambion). mRNAs were injected at 3 pg (human KCNH6), 150 pg (GCaMP6) and 150 pg (mCherry) per embryo. Embryos were raised at 21° C. to allow time for sufficient expression levels at blastula/gastrula stages.
(§3) Normal embryonic medium is 1/9× modified Ringer's (MR) containing 11 mM NaCl, 0.2 mM KCl, 0.2 mM CaCl2), 0.1 mM Mg2Cl and 0.55 mM HEPES. To allow Ergtoxin to penetrate the embryos, the present study manually removed the vitelline envelope of stage 8 embryos and incubated embryos in 1/9×MR containing 50 nM Ergtoxin (Alomone STE-450) until stage 12. Embryos were then transferred back into 1/9×MR lacking Ergtoxin to develop until stage 45 in order to score organ situs. Barium chloride was applied into the medium at 20 mM and embryos were thoroughly rinsed in 1/9×MR after each incubation period for further development in Ba2+-free medium. For extracellular K^+ manipulations, the KCl concentration in 1/9×MR was modified from 0.2 mM (normal) to 20 mM (high) or 0 mM (low). The ionophore valinomycin (ACROS) and L-type VGCC blocker Nifedipine (ACROS) were diluted in DMSO as stock solutions and applied to embryos in 1/9×MR at 2 nM and 10 μM respectively. Treatments performed during gastrulation were applied from stage 8 through stage 12, and embryos were then rinsed thoroughly and returned into 1/9×MR. For rapamycin, the present study created a standard stock solution of 50 mg/ml in DMSO. The stock solution was diluted 1:2500 in the appropriate embryonic media (final 20 μg/ml). Embryos were treated at stage 7 and then fixed at stage 11 for in situ hybridization.
(§4) In experiments where embryos were evaluated for phenotypes and scored (gastrulation, left-right patterning, in situ hybridizations) the present study carried out three to five biological replicates and Fisher's exact test to evaluate statistical significance. The animal cap experiment was performed twice with a total score of four to eight animal caps per experiment. For the calcium transient analyses, data was collected from three to five embryos in each experiment in three independent experiments, and statistical analyses on GCaMP/mCherry fluorescence intensity as well as Ca^2+ transient area were performed using student's t-test. For whole cell electrophysiological recordings, three to five embryos (two cells each) were examined for their membrane potential and statistical significance was tested by student's t-test. Graphs were designed using GraphPad Prism software. Models were created with BioRender.com.

hESCs [4] = test: hESC BMP4-induced differentiation, pluripotency marker immunofluorescence; format: cell-based, human; settings: BMP4 50 ng/ml, at 12 hours; similar trend in NANOG
Protocol: as §1
Cells were fixed for 30 min in 4% paraformaldehyde, rinsed twice with DPBS (without Ca^2+ and Mg^2+, denoted DPBS^−/−), and blocked for 30 min at room temperature. The blocking solution contained 3% donkey serum and 0.1% Triton X-100 in 1×DPBS^−/−. After blocking, the cells were incubated with primary antibodies at room temperature for 2 hours. Antibodies and concentrations are listed below. […]
as §2, with “Cell segmentation was performed using ilastik software.” left out, “code.” for “code. Nuclear intensities were normalized by DAPI to correct for intensity variation due to optics.”

Xenopus embryos [5] = test: Organ situs (left-right patterning) scoring in stage 45 tadpoles; format: in vivo, Xenopus tropicalis; settings: blastula/gastrula embryos treated stage 8 to stage 12, 50 nM
Protocol: Stage 45 Xenopus embryos were paralyzed with benzocaine or tricaine and scored with a light stereomicroscope. Cardiac looping was determined by position of the outflow tract; D-loop: rightward, L-loop: leftward; A-loop: midline. Normal intestinal looping was scored as counter-clockwise rotation of the gut, while abnormal intestinal looping was scored as completely inverse gut rotation (clockwise) or complete lack of looping (un-looped). While a completely inverted gut rotation is clearly an abnormality of LR patterning, an unlooped gut is less clear so the present study only considered an unlooped gut as abnormal situs when combined with abnormal placement (left-sided or midline) of the gall bladder. To quantify total abnormal organ situs, each tadpole was counted only once, regardless of whether multiple organs were affected.
as §3, §4

Substance: Ergtoxin: a scorpion peptide that specifically acts as a pore blocker of the KCNH channel family (Alomone STE-450) (DRDSCVDKSRCAKYGYYQECQDCCKNAGHNGGTCMFFKCKCA; ends and bridges not checked; cysteine pairing not given here; UniProt Q86QT3 21-62, looked up)
- OCT4, SOX2 and NANOG transcript level (hESCs [1]): upregulation of these genes at the transcript level
- effect on pluripotency markers in the presence of rapamycin (hESCs [2]; 25 nM Ergtoxin with 100 nM rapamycin): no effect
- pluripotency markers OCT4 and SOX2 (hESCs [2]; hESCs grown for two days, 25 nM Ergtoxin or 1 mM Barium, immunostaining and qPCR): modest but significant elevation
- gastrulation defects (Xenopus embryos [3]): identical gastrulation and LR defects
- downregulation of pluripotency markers such as SOX2 (hESCs [4]): significant delay
- LR defects (Xenopus embryos [5]): identical gastrulation and LR defects
